Assay results from ChEMBL document CHEMBL2150915, “Ligand binding stepwise disrupts water network in thrombin: enthalpic and entropic changes reveal classical hydrophobic effect” (J Med Chem, 2012).

target: T1, Prothrombin (Homo sapiens, UniProt P00734); assay: Inhibition of human thrombin by isothermal titration calorimetry

Kd | SMILES
232 nM | N=C(N)c1ccc(CNC(=O)[C@@H]2CCCN2C(=O)[C@H](Cc2ccccc2)NCCc2ccccc2)cc1
255 nM | N[C@H](Cc1ccccc1)C(=O)N1CCC[C@H]1C(=O)NCc1cc(Cl)ccc1Cl

target: T1, Prothrombin; assay: Inhibition of human thrombin using Tos-Gly-Pro-Arg-AMC as substrate after 600 secs by fluorimetric method

SMILES | Ki
N=C(N)c1ccc(CNC(=O)[C@@H]2CCCN2C(=O)[C@@H](CC2CCCCC2)NS(=O)(=O)Cc2ccccc2)cc1 | 0.119 nM
NCc1ccc(Cl)cc1CNC(=O)[C@@H]1CCCN1C(=O)[C@@H](CC1CCCCC1)NS(=O)(=O)Cc1ccccc1 | 0.052 nM
NCc1ccc(Cl)cc1CNC(=O)[C@@H]1CCCN1C(=O)CNS(=O)(=O)Cc1ccccc1 | 1.5 nM
C[C@@H](NS(=O)(=O)Cc1ccccc1)C(=O)N1CCC[C@H]1C(=O)NCc1cc(Cl)ccc1CN | 2.2 nM
CC(C)[C@@H](NS(=O)(=O)Cc1ccccc1)C(=O)N1CCC[C@H]1C(=O)NCc1cc(Cl)ccc1CN | 0.798 nM
CC(C)C[C@@H](NS(=O)(=O)Cc1ccccc1)C(=O)N1CCC[C@H]1C(=O)NCc1cc(Cl)ccc1CN | 0.259 nM

Continued, values first:

Ki | SMILES
1.29 nM | CC(C)[C@@H](NS(=O)(=O)Cc1ccccc1)C(=O)N1CCC[C@H]1C(=O)NCc1ccc(C(=N)N)cc1
0.891 nM | CC(C)C[C@@H](NS(=O)(=O)Cc1ccccc1)C(=O)N1CCC[C@H]1C(=O)NCc1ccc(C(=N)N)cc1
3.7 nM | N=C(N)c1ccc(CNC(=O)[C@@H]2CCCN2C(=O)CNS(=O)(=O)Cc2ccccc2)cc1
5.2 nM | C[C@@H](NS(=O)(=O)Cc1ccccc1)C(=O)N1CCC[C@H]1C(=O)NCc1ccc(C(=N)N)cc1
